We go through ten compounds from PubChem BioAssay (NCI).

Values joined by “and” are separate entries in the source; they are usually repeats but may differ in a detail not shown here. Equal entries are not always repeated.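 Growth conditions: 96-well plates. Treatment: test compound, 48 hours, 5 concentrations. Analysis: linear interpolation between bracketing concentrations; unreached endpoints set to highest concentration. GI50 marks 50% less growth. TGI: total growth inhibition.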

Among the test systems are M14 melanoma; K-562 leukemia; NCI-H23 lung; RXF 393 renal; EKVX NSCLC; TK-10 renal; HOP-62 NSCLC; RPMI-8226 leukemia; SW-620 colon; A549 NSCLC.
Common to all, as to assay: NCI anticancer screen, dose series, 48 h

`O=S(O)c1cc(Cl)c(O)c(Cl)c1`: the TGI in the assay on M14 melanoma, in the assay on K-562 leukemia, with NCI-H23 lung, in the assay on RXF 393 renal, in the assay on EKVX NSCLC and with TK-10 renal was > 100 µM each time. For the same compound, the TGI in the assay on HOP-62 NSCLC is > 100 µM.
Consider `Cn1c(=O)c2[nH]c(SC/C(=N/O)c3ccc(Br)cc3)nc2n(C)c1=O`, for which the GI50 is 45.5 µM in the assay on M14 melanoma; 25.9 µM in the assay on K-562 leukemia; 2.08 µM in the assay on NCI-H23 lung; 2.05 µM with RXF 393 renal; 34.7 µM with RPMI-8226 leukemia; 2.76 µM with EKVX NSCLC. Also, the GI50 in the assay with TK-10 renal is 1.92 µM; in the assay on HOP-62 NSCLC it was 2.3 µM; in the assay on SW-620 colon it was > 100 µM. Besides, the TGI with M14 melanoma was > 100 µM; with K-562 leukemia, > 100 µM; with NCI-H23 lung it was 4.75 µM; with RXF 393 renal, 3.76 µM; in the assay on RPMI-8226 leukemia it was > 100 µM; in the assay with EKVX NSCLC, > 100 µM. Also, the TGI in the assay on TK-10 renal was 3.41 µM; with HOP-62 NSCLC it was 5.09 µM; with SW-620 colon it was > 100 µM.
Regarding `COc1ccc2c3/c(=C\c4ccc(N(C)C)cc4)c4ccccc4n3[n+](C)c2c1`, the GI50 with K-562 leukemia was 0.0272 µM; in the assay with NCI-H23 lung, 0.0639 µM; with RXF 393 renal it was 0.0603 µM; in the assay on RPMI-8226 leukemia, < 0.0112 µM; in the assay on EKVX NSCLC it was 0.11 µM; in the assay on TK-10 renal, 0.274 µM. The values for the GI50 in the assay on A549 NSCLC and in the assay with SW-620 colon were 0.236 µM and 0.0438 µM, respectively. For the same compound, the TGI with K-562 leukemia was > 40 µM; with NCI-H23 lung, 0.722 µM; with RXF 393 renal it was 1.04 µM; in the assay with RPMI-8226 leukemia it was 0.136 µM; with EKVX NSCLC, 4.16 µM; with TK-10 renal it was 1.32 µM. In addition, the TGI with SW-620 colon was > 100 µM.
Turning to `COc1ccccc1C(=O)OCC1CCCN2CCCCC12` (stereo not drawn), the TGI is > 100 µM in the assay on K-562 leukemia; > 100 µM in the assay with NCI-H23 lung; 73.6 µM in the assay with RXF 393 renal; > 100 µM in the assay with RPMI-8226 leukemia; > 100 µM with EKVX NSCLC; > 100 µM in the assay on TK-10 renal. In addition, the TGI in the assay on A549 NSCLC and in the assay with SW-620 colon was > 100 µM throughout.
Turning to `Cc1cc(O)c2c(c1)C(C1c3cccc(O)c3C(=O)c3c(O)cc(C)cc31)c1cccc(O)c1C2=O` (stereo not drawn), the TGI in the assay on M14 melanoma was 7.49 µM; in the assay on K-562 leukemia, 11.7 µM; in the assay with NCI-H23 lung, 4.65 µM; in the assay on RXF 393 renal it was 0.861 µM; in the assay with RPMI-8226 leukemia it was 0.8 µM; in the assay with EKVX NSCLC, 4.15 µM. Further, the TGI worked out at 20.6 µM in the assay on TK-10 renal, 3 µM in the assay on HOP-62 NSCLC, 0.97 µM with A549 NSCLC and 12.9 µM in the assay with SW-620 colon.
Take `O=C1C(=C([O-])c2ccccc2)C(=O)c2ccccc21.O=C1C(=C([O-])c2ccccc2)C(=O)c2ccccc21.[Ni+2]`: the GI50 is 37.4 µM with NCI-H23 lung; 48.8 µM with RXF 393 renal; > 100 µM in the assay with RPMI-8226 leukemia; 44.4 µM with EKVX NSCLC; > 100 µM in the assay with TK-10 renal; 52.5 µM with A549 NSCLC. Besides, the GI50 in the assay with SW-620 colon was 58.9 µM. Moreover, the TGI in the assay with NCI-H23 lung, in the assay with RXF 393 renal, in the assay with RPMI-8226 leukemia, in the assay with EKVX NSCLC, with TK-10 renal and with A549 NSCLC was > 100 µM each time. Also, the TGI with SW-620 colon was > 100 µM.
Take `O=c1[nH]c(=O)n(C2CC(O)C(CO)O2)cc1Br` (stereo not drawn): the TGI in the assay with M14 melanoma, in the assay with K-562 leukemia, in the assay on NCI-H23 lung, with RXF 393 renal, in the assay with RPMI-8226 leukemia and in the assay on EKVX NSCLC was > 100 µM in each case. In addition, the TGI in the assay on TK-10 renal, with HOP-62 NSCLC, with A549 NSCLC and in the assay with SW-620 colon was > 100 µM each time.
For `CC1OC(O[C@@H]2C=C3CC[C@@H]4[C@H](CC[C@]5(C)[C@@H](c6ccc(=O)oc6)CC[C@]45O)[C@@]3(C)CC2)C(O)C(OC2OC(CO)C(O)C(O)C2O)C1O` (stereo partly drawn), the GI50 is 0.00096 µM with M14 melanoma and 0.000339 µM in the assay on EKVX NSCLC. In addition, the TGI is 0.0148 µM in the assay on M14 melanoma; 0.0236 µM in the assay with NCI-H23 lung; 0.00534 µM and 0.0254 µM with EKVX NSCLC; 0.016 µM in the assay with TK-10 renal; 0.00151 µM in the assay on HOP-62 NSCLC; 0.000142 µM in the assay with A549 NSCLC. Moreover, in the assay with SW-620 colon, the TGI is 0.0348 µM and 0.0288 µM.
Turning to `COc1cc(O)c(Cc2ccccc2O)c(O)c1C(=O)CCc1ccccc1`, the TGI in the assay with K-562 leukemia came out at 20 µM; with NCI-H23 lung it was 12 µM; in the assay with RXF 393 renal, 18.9 µM; in the assay on RPMI-8226 leukemia, 9.8 µM; with EKVX NSCLC, 22.5 µM; with HOP-62 NSCLC it was 9.89 µM. Also, the TGI in the assay on A549 NSCLC came out at 21.8 µM; in the assay on SW-620 colon it was 29.4 µM.
For the compound `NC(=O)/N=C/c1c(O)c2ccccc2oc1=O`, the TGI is > 100 µM with M14 melanoma; > 100 µM with K-562 leukemia; > 100 µM in the assay with NCI-H23 lung; 82.4 µM in the assay on RXF 393 renal; > 100 µM with RPMI-8226 leukemia; > 100 µM in the assay on EKVX NSCLC. Besides, the TGI in the assay with TK-10 renal, with HOP-62 NSCLC and with SW-620 colon was > 100 µM in each case.
